From US20240382600A1, “BIFUNCTIONAL DEGRADERS COMPRISING A TEAD BINDER” (Novartis AG, priority 2021, published 2024) come the findings set out here.

Assay [1] deals with Avi-humanTEAD4^217-434 / Cy5 labeled humanYAP^60-100 (Homo sapiens (Human), UniProt Q15561). Description: In-vitro biochemical TR-FRET assay (TEAD4/YAP). The format is binding. Particulars: 1 h at room temperature. On the technique in general: In TR-FRET formats the signal depends on donor and acceptor labels being close together.
Sequence of Avi-humanTEAD4^217-434 / Cy5 labeled humanYAP^60-100 (Q15561 217-434): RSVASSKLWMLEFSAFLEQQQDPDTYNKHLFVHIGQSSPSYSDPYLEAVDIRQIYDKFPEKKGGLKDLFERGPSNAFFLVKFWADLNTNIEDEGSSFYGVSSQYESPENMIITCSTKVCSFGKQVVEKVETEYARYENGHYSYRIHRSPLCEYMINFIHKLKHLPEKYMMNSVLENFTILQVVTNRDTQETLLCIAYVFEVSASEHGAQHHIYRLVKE
The subject of assay [2] is SF268-MCAT_Luc_dox-i-shYAPLevy (Clone 13) cells. Description: Proliferation assay (resazurin/AlamarBlue), SF268. Particulars: Homo sapiens, SF-268; SF268, 72 hours. It counts as cell-based. Background: Resazurin is reduced to fluorescent resorufin, in cell work by metabolically active cells.
In assay [3] the target is TEAD1-GFP in HEK293A cells (Homo sapiens (Human), UniProt P28347). Description: TEAD1 protein abundance flow cytometry assay in HEK293A. It counts as cell-based. Particulars: HEK293A TEAD1-GFP-CHYSEL-mCherry sensor cells, 24 h, GFP signal by flow cytometry. How it is done: Degradation of TEAD1 was measured in HEK293A cells (Invitrogen R70507) expressing TEAD1-GFP and mCherry from a stably integrated bicistronic TEAD1-GFP-CHYSEL-mCherry construct. Reduction of the GFP signal measured by flow cytometry served as readout for TEAD1 degradation after degrader treatment.
Sequence of TEAD1-GFP in HEK293A cells (P28347 whole entry): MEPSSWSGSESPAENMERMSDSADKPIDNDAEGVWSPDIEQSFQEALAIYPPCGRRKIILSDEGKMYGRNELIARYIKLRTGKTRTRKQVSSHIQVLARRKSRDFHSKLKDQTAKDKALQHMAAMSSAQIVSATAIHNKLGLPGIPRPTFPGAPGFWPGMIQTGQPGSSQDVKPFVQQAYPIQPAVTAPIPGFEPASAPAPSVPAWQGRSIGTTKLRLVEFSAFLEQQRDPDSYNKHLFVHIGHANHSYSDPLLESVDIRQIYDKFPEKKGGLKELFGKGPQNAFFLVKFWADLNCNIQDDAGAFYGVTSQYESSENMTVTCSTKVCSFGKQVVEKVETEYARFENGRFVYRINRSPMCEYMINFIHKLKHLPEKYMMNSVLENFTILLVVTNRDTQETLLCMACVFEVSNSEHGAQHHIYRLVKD
Stable HEK293A sensor cells were maintained in complete growth medium (DMEM high Glucose+10% FCS+1% L-Glutamine+1% NEAA+1% NaPyr.+4 μg/mL blasticidin) with passaging performed twice per week. On Day 0, stable HEK293A sensor cells were seeded at 5,000 cells/well in a 96-well microtiter plate in 100 μL complete medium. On Day 1, cells were treated in duplicate with 10-point 1:3 dilution series of compound using the HP D300 Digital Dispenser (Tecan). DMSO concentrations were normalized across the plate to 0.1%. On Day 2, after 24 h of incubation at 37° C., treatment media was discarded, cells rinsed with 100 μL/well PBS and then detached using 40 μL trypsin/well for 5 min. Trypsin was neutralized with 100 μL/well PBS+20% FCS).
Flow cytometry was performed on the samples using the CytoFlex S (Beckman Coulter). Cell identification was then performed using forward (FSC) vs. side scatter (SSC) plots. Single cell discrimination was performed using SSC-Width (SSC-W) vs. SSC-Height (SSCH) plots. Median GFP values for 2,500 single cells were used to determine TEAD1 levels. Median GFP values from HEK293A were used as a background signal and thus defining 0% TEAD1 signal. Median GFP values from DMSO treated HEK293A TEAD1-GFP CHYSEL-mCherry were used to define 100%
TEAD1 signal for subsequent DC50 curves (concentration at 50% TAED1 degradation). GFP and RFP were read in the channels called FITC and PE, respectively. Concentration response curves plotting relative reduction of the GFP signal (measured by flow cytometry) versus 10 compound concentrations (starting concentration 10 μM, 3 fold dilution steps) of the compounds allowed generation of DC50 values.
In general terms: In flow cytometry, cells or beads pass a laser one at a time.

The test system of assay [4] is YAP-dependent transcription in SF268-MCAT_Luc_dox-i-shYAPLevy (Clone 13) cells. As to the kind of experiment: YAP reporter gene activity assay (MCAT-Luc), SF268. Particulars: Homo sapiens, SF-268; SF268 MCAT_Luc, 24 hrs. It counts as cell-based.
In assay [5] the test system is YAP-dependent transcription in NCI-H2052 Tet-On shYAP_2371 pLenti6 MCAT_Luc cells. Description: YAP reporter gene activity assay (MCAT-Luc), NCI-H2052. The format is cell-based. Particulars: Homo sapiens, 24 hrs.
The subject of assay [6] is NCI-H2052 Tet-On shYAP_2371 pLenti6 MCAT_Luc cells. As to the kind of experiment: Proliferation assay (resazurin/AlamarBlue), NCI-H2052. The format is cell-based. Particulars: Homo sapiens; NCI-H2052, 72 hours.
The next assay has as its system MKN-45/Ubc-luc cells. Description: Proliferation assay (resazurin/AlamarBlue), MKN-45. Particulars: Homo sapiens; MKN-45, 72 hours. It counts as cell-based. An outline of the steps:
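MKN-45 cells carrying constitutive Ubc-driven luciferase reporter, treated the day after seeding with eleven 2-fold dilutions (0.1% DMSO) for 72 h at 37 °C. Viability by resazurin, referenced to day-0 plate; GI50 from % growth (100 none, 0 stasis, −100 kill) and residual viability at top concentration.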

Assay [7] relates to MKN-45/Ubc-luc cells (unspecific inhibition of luciferase expression or activity). Description: Reporter gene assay specificity control (Ubc-Luc), MKN-45. It counts as cell-based. Particulars: Homo sapiens; MKN-45/Ubc-luc specificity control, 24 hrs. An outline of the steps: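 MKN-45 cells stably carrying a ubiquitin C promoter–firefly luciferase construct, treated the day after seeding with eleven 2-fold compound dilutions (0.1% DMSO final) for 24 hrs at 37° C. Luminescence read 5 min after Steady Glo addition; cell-free background subtracted, as a control for nonspecific luciferase inhibition.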

A word on the IC50: it is the concentration needed to halve the response being measured. Usually GI50 stands for the concentration at which growth is held to half of that of the control. With `COc1ccc(C(=O)N2CCC(C3CCN(CCNC(=O)[C@H]4CC[C@H](NC[C@]5(c6ccccc6)Oc6cc(F)c(Cl)c(-c7c(C(N)=O)ccc(OC)c7F)c6[C@@H]5C)CC4)CC3)CC2)cc1N1CCC(=O)NC1=O` (atropisomer, axis not shown) [Example 11, 2-((2S,3S,4S)-5-chloro-2-((((1r,4S)-4-((2-(1′-(3-(2,4-dioxotetrahydropyrimidin-1(2H)-yl)-4-methoxybenzoyl)-[4,4′-bipiperidin]-1-yl)ethyl)carbamoyl)cyclohexyl)amino)methyl)-6-fluoro-3-methyl-2-phenyl-2,3-dihydrobenzofuran-4-yl)-3-fluoro-4-methoxybenzamide], the concentration for half-maximal inhibition (IC50) in assay [1] was less than 1 nM; in assay [4] it was 1.4 nM; in assay [5], 91 nM; in assay [7], greater than 20000 nM. Besides, the GI50 in assay [2] is 51 nM; in assay [6] it was 280 nM; in the assay with MKN-45/Ubc-luc cells it was greater than 20000 nM. The DC50 in assay [3] was 11 nM.

Regarding `COc1ccc(C(N)=O)c(-c2c(Cl)c(F)cc3c2[C@H](C)[C@@](CN[C@H]2CC[C@H](C(=O)N4CCC(OC5CCN(C(=O)COc6ccc(C)c(N7CCC(=O)NC7=O)c6)CC5)CC4)CC2)(c2ccccc2)O3)c1F` (atropisomer, axis not shown) [Example 20, 2-((2S,3S,4S)-5-chloro-2-((((1r,4S)-4-(4-((1-(2-(3-(2,4-dioxotetrahydropyrimidin-1(2H)-yl)-4-methylphenoxy)acetyl)piperidin-4-yl)oxy)piperidine-1-carbonyl)cyclohexyl)amino)methyl)-6-fluoro-3-methyl-2-phenyl-2,3-dihydrobenzofuran-4-yl)-3-fluoro-4-methoxybenzamide], the IC50 in assay [1] is 1.4 nM; in assay [4] it was 0.22 nM; in assay [5] it was 3.9 nM; in assay [7], greater than 20000 nM. For the same compound, the GI50 in assay [2] is 18 nM; in assay [6] it was 19 nM; in the assay on MKN-45/Ubc-luc cells, greater than 20000 nM. Further, the DC50 in assay [3] was 0.4 nM.

Regarding `COc1ccc(C(N)=O)c(-c2c(Cl)c(F)cc3c2[C@H](C)[C@@](CN[C@H]2CC[C@H](C(=O)N4CCC(CC5CCN(C(=O)COc6ccc(N7CCC(=O)NC7=O)c(C)c6)CC5)CC4)CC2)(c2ccccc2)O3)c1F` (atropisomer, axis not shown) [Example 26, 2-((2S,3S,4S)-5-chloro-2-((((1r,4S)-4-(4-((1-(2-(4-(2,4-dioxotetrahydropyrimidin-1(2H)-yl)-3-methylphenoxy)acetyl)piperidin-4-yl)methyl)piperidine-1-carbonyl)cyclohexyl)amino)methyl)-6-fluoro-3-methyl-2-phenyl-2,3-dihydrobenzofuran-4-yl)-3-fluoro-4-methoxybenzamide], the IC50 in assay [1] is 4 nM; in assay [4] it was 0.26 nM; in assay [5] it was 1.3 nM; in assay [7], greater than 2000 nM. In addition, the GI50 is 12 nM in assay [2], 2.5 nM in assay [6] and greater than 2000 nM with MKN-45/Ubc-luc cells. This compound yielded a DC50 in assay [3] of 0.3 nM.

In the case of `COc1ccc(C(=O)N2CCC(C3CCN(C(=O)[C@H]4CC[C@H](NC[C@]5(c6ccccc6)Oc6cc(F)c(Cl)c(-c7c(C(N)=O)ccc(OC)c7F)c6[C@@H]5C)CC4)CC3)CC2)cc1N1CCC(=O)NC1=O` (atropisomer, axis not shown) [Example 10, 2-((2S,3S,4S)-5-chloro-2-((((1r,4S)-4-(1′-(3-(2,4-dioxotetrahydropyrimidin-1(2H)-yl)-4-methoxybenzoyl)-[4,4′-bipiperidine]-1-carbonyl)cyclohexyl)amino)methyl)-6-fluoro-3-methyl-2-phenyl-2,3-dihydrobenzofuran-4-yl)-3-fluoro-4-methoxybenzamide], the IC50 in assay [1] was 2.6 nM; in assay [4] it was 0.43 nM; in assay [5], 10 nM; in assay [7], greater than 20000 nM. Also, the GI50 is 30 nM in assay [2], 38 nM in assay [6] and 12500 nM with MKN-45/Ubc-luc cells. This compound returned a DC50 in assay [3] of 1 nM.

Turning to `COc1ccc(C(N)=O)c(-c2c(Cl)c(F)cc3c2[C@H](C)[C@@](CN[C@H]2CC[C@H](C(=O)NCCCCCCCNC(=O)COc4ccc(C)c(N5CCC(=O)NC5=O)c4)CC2)(c2ccccc2)O3)c1F` (atropisomer, axis not shown) [Example 23, 2-((2S,3S,4S)-5-chloro-2-((((1r,4S)-4-((7-(2-(3-(2,4-dioxotetrahydropyrimidin-1(2H)-yl)-4-methylphenoxy)acetamido)heptyl)carbamoyl)cyclohexyl)amino)methyl)-6-fluoro-3-methyl-2-phenyl-2,3-dihydrobenzofuran-4-yl)-3-fluoro-4-methoxybenzamide], the IC50 was less than 1 nM in assay [1], 1.4 nM in assay [4], 13 nM in assay [5] and greater than 2000 nM in assay [7]. Also, the GI50 in assay [2] is 74 nM; in assay [6], 35 nM; in the assay on MKN-45/Ubc-luc cells it was greater than 2000 nM. In addition, the DC50 in assay [3] turned out to be 3 nM.

`COc1ccc(C(=O)N2CCN(CC3CN(C(=O)[C@H]4CC[C@H](NC[C@]5(c6ccccc6)Oc6cc(F)c(Cl)c(-c7c(C(N)=O)ccc(OC)c7F)c6[C@@H]5C)CC4)C3)CC2)cc1N1CCC(=O)NC1=O` (atropisomer, axis not shown) [Example 9, 2-((2S,3S,4S)-5-chloro-2-((((1r,4S)-4-(3-((4-(3-(2,4-dioxotetrahydropyrimidin-1(2H)-yl)-4-methoxybenzoyl)piperazin-1-yl)methyl)azetidine-1-carbonyl)cyclohexyl)amino)methyl)-6-fluoro-3-methyl-2-phenyl-2,3-dihydrobenzofuran-4-yl)-3-fluoro-4-methoxybenzamide]: the IC50 is 1.2 nM in assay [1], 3.5 nM in assay [4], 350 nM in assay [5] and greater than 2000 nM in assay [7]. Moreover, the GI50 in assay [2] is 120 nM; in assay [6], 1190 nM; in the assay on MKN-45/Ubc-luc cells, greater than 2000 nM. This compound also gave a DC50 in assay [3] of 112 nM.

Regarding `COc1ccc(C(N)=O)c(-c2c(Cl)c(F)cc3c2[C@H](C)[C@@](CN[C@H]2CC[C@H](C(=O)NCCOCCOCCOCCNC(=O)COc4cc(-c5scnc5C)ccc4CNC(=O)[C@@H]4C[C@@H](O)CN4C(=O)[C@@H](NC(=O)C4(F)CC4)C(C)(C)C)CC2)(c2ccccc2)O3)c1F` (atropisomer, axis not shown) [Example 40, (2S,4R)-N-(2-((1-((1S,4r)-4-((((2S,3S,4S)-4-(6-carbamoyl-2-fluoro-3-methoxyphenyl)-5-chloro-6-fluoro-3-methyl-2-phenyl-2,3-dihydrobenzofuran-2-yl)methyl)amino)cyclohexyl)-1,15-dioxo-5,8,11-trioxa-2,14-diazahexadecan-16-yl)oxy)-4-(4-methylthiazol-5-yl)benzyl)-1-((S)-2-(1-fluorocyclopropane-1-carboxamido)-3,3-dimethylbutanoyl)-4-hydroxypyrrolidine-2-carboxamide], the IC50 in assay [1] was 4.7 nM; in assay [4], 47 nM; in assay [5], 160 nM; in assay [7] it was greater than 20000 nM. Further, the GI50 is 1860 nM in assay [2], 410 nM in assay [6] and greater than 20000 nM with MKN-45/Ubc-luc cells. The DC50 in assay [3] came to 20 nM.
